In patent US12528792B2, “Sulfonamide compounds and the use thereof in the treatment of cancer” (TROBIO THERAPEUTICS PTY LTD, priority 2019, dated 2026) one finds IC50 data, which are given here for 28 compounds.

Common to all, as to type: cell-based
The test system of one test is A549 (NSCLC) cells. Briefly: Anti-proliferative activity, Cell-Titre luminescent viability assay. To be noted: Homo sapiens, 72 h exposure, Cell-Titre luminescent reagent. An outline of the steps: (§1)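 Cells attached 24 h at 37° C., 5% CO2, then treated 72 h with compound at 0.3–100 μM or 0.1–30 μM. Viability read by Cell-Titre luminescence after 30 min reagent exposure, normalized to vehicle; EC50 from variable-slope sigmoidal nonlinear regression.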

In a further test the test system is A2780 (ovarian) cells. The test is described as above. To be noted: Homo sapiens, 72 h exposure, Cell-Titre luminescent reagent. An outline of the steps: as §1
The subject of test [1] is SK-N-SH neuroblastoma cells. Briefly: Cytotoxicity assay, MTS viability. Particulars: Homo sapiens, 72 hours. The method, then: The ability of compounds of the disclosure to inhibit the proliferation of SK—N—SH neuroblastoma cells was assessed. The SK—N—SH cell line was maintained as a monolayer in Dulbeccos Modified Eagles medium (DMEM) supplemented with 10% foetal bovine serum (FBS) and grown at 37° C. in a humidified atmosphere with 5% CO2. For the cytotoxicity assay, SK—N—SH cells were seeded at a density of 2×10^3 cells per well in 96-well plates. The cells were treated with serial dilutions of the test compounds (1:2 starting concentration 100 µM) and viability measured after 72 hours using a standard MTS assay. Cell viability was normalised to control (vehicle alone) and dose response curves and EC50 values (Table 3) were determined using Graph Pad Prism 6.

By IC50 is commonly meant the concentration that inhibits the measured activity by half. Lower therefore signals inhibition by little substance. Turning to `CCC(C)c1cccc(NC(=O)c2ccn(S(=O)(=O)c3ccc4[nH]ccc4c3)c2)c1` (stereo not drawn) [Compound 35, 1-((1H-indol-5-yl)sulfonyl)-N-(3-(sec-butyl)phenyl)-1H-pyrrole-3-carboxamide], the IC50 in the test on A549 (NSCLC) cells was 3.6 µM; in the test on A2780 (ovarian) cells, 2.2 µM; in test [1], 6.81 µM.

In the case of `CCC(C)c1ccccc1NC(=O)c1ccn(S(=O)(=O)c2ccc3[nH]ccc3c2)c1` (stereo not drawn) [Compound 36, 1-((1H-indol-5-yl)sulfonyl)-N-(2-(sec-butyl)phenyl)-1H-pyrrole-3-carboxamide], the values for the IC50 (with A549 (NSCLC) cells; in the test with A2780 (ovarian) cells; in test [1]) were 8.9 µM, 6.1 µM and 22.2 µM, respectively.

For `CC(C)c1ccc(NC(=O)c2ccn(S(=O)(=O)c3ccc4[nH]ccc4c3)c2)cc1` [Compound 37, 1-((1H-indol-5-yl)sulfonyl)-N-(4-isopropylphenyl)-1H-pyrrole-3-carboxamide], the IC50 in the test on A549 (NSCLC) cells turned out to be 5.8 µM; with A2780 (ovarian) cells, 4.3 µM; in test [1], 10.8 µM.

Regarding `CC(C)c1cccc(NC(=O)c2ccn(S(=O)(=O)c3ccc4[nH]ccc4c3)c2)c1` [Compound 38, 1-((1H-indol-5-yl)sulfonyl)-N-(3-isopropylphenyl)-1H-pyrrole-3-carboxamide], the IC50 in the test with A549 (NSCLC) cells turned out to be 5.4 µM; with A2780 (ovarian) cells, 6.7 µM; in test [1], 12 µM.

For `CCc1cccc(NC(=O)c2ccn(S(=O)(=O)c3ccc4[nH]ccc4c3)c2)c1` [Compound 41, 1-((1H-indol-5-yl)sulfonyl)-N-(3-ethylphenyl)-1H-pyrrole-3-carboxamide], the IC50 with A549 (NSCLC) cells was determined as 12.8 µM; in the test with A2780 (ovarian) cells it was 1.1 µM; in test [1] it was 16.2 µM.

On to `Cc1cccc(NC(=O)c2ccn(S(=O)(=O)c3ccc4[nH]ccc4c3)c2)c1` [Compound 44, 1-((1H-indol-5-yl)sulfonyl)-N-(m-tolyl)-1H-pyrrole-3-carboxamide], for which the IC50 with A549 (NSCLC) cells was determined as 8.7 µM; in the test on A2780 (ovarian) cells, 2.5 µM; in test [1], 15.2 µM.

Consider `Cc1ccccc1NC(=O)c1ccn(S(=O)(=O)c2ccc3[nH]ccc3c2)c1` [Compound 45, 1-((1H-indol-5-yl)sulfonyl)-N-(o-tolyl)-1H-pyrrole-3-carboxamide], for which the IC50 in the test on A549 (NSCLC) cells was 5.2 µM; in the test with A2780 (ovarian) cells, 2.2 µM; in test [1] it was 27 µM.

Turning to `O=C(Nc1cccc(C(F)(F)F)c1)c1ccn(S(=O)(=O)c2ccc3[nH]ccc3c2)c1` [Compound 46, 1-((1H-indol-5-yl)sulfonyl)-N-(3-(trifluoromethyl)phenyl)-1H-pyrrole-3-carboxamide], the results for the IC50 (in the test on A549 (NSCLC) cells; in the test with A2780 (ovarian) cells; in test [1]) were 7.7 µM, 7.1 µM and 14.7 µM, respectively.

On to `O=C(Nc1ccccc1C(F)(F)F)c1ccn(S(=O)(=O)c2ccc3[nH]ccc3c2)c1` [Compound 47, 1-((1H-indol-5-yl)sulfonyl)-N-(2-(trifluoromethyl)phenyl)-1H-pyrrole-3-carboxamide], for which the IC50 in the test on A549 (NSCLC) cells amounted to 2.3 µM; in the test with A2780 (ovarian) cells, 1.6 µM; in test [1], 27.8 µM.

For `O=C(Nc1cccc(F)c1)c1ccn(S(=O)(=O)c2ccc3[nH]ccc3c2)c1` [Compound 49, 1-((1H-indol-5-yl)sulfonyl)-N-(3-fluorophenyl)-1H-pyrrole-3-carboxamide], the IC50 in the test with A549 (NSCLC) cells was determined as 6.3 µM; in the test on A2780 (ovarian) cells it was 4.1 µM; in test [1] it was 15.4 µM.

As for `O=C(Nc1ccccc1F)c1ccn(S(=O)(=O)c2ccc3[nH]ccc3c2)c1` [Compound 50, 1-((1H-indol-5-yl)sulfonyl)-N-(2-fluorophenyl)-1H-pyrrole-3-carboxamide], the IC50 in the test with A549 (NSCLC) cells amounted to 4 µM; in the test with A2780 (ovarian) cells, 1.8 µM; in test [1] it was 11.5 µM.

In the case of `CCC(C)c1ccc(NC(=O)c2ccn(S(=O)(=O)c3ccc4[nH]c(C)cc4c3)c2)cc1` (stereo not drawn) [Compound 57, N-(4-(sec-butyl)phenyl)-1-((2-methyl-1H-indol-5-yl)sulfonyl)-1H-pyrrole-3-carboxamide], the results for the IC50 (with A549 (NSCLC) cells; in the test on A2780 (ovarian) cells; in test [1]) were 3.9 µM, 3.9 µM and 7.22 µM, respectively.

For the compound `CCC(C)c1ccc(NC(=O)c2ccn(S(=O)(=O)c3ccc4[nH]cc(C)c4c3)c2)cc1` (stereo not drawn) [Compound 58, N-(4-(sec-butyl)phenyl)-1-((3-methyl-1H-indol-5-yl)sulfonyl)-1H-pyrrole-3-carboxamide], the IC50 in the test on A549 (NSCLC) cells stood at 3.8 µM; with A2780 (ovarian) cells, 2.1 µM; in test [1], 14 µM.

Turning to `CCC(C)c1ccc(NC(=O)c2ccn(S(=O)(=O)c3ccc4[nH]c(C)c(C)c4c3)c2)cc1` (stereo not drawn) [Compound 59, N-(4-(sec-butyl)phenyl)-1-((2,3-dimethyl-1H-indol-5-yl)sulfonyl)-1H-pyrrole-3-carboxamide], the IC50 with A549 (NSCLC) cells amounted to 6.2 µM; with A2780 (ovarian) cells it was 4.6 µM; in test [1] it was 10.3 µM.

`CCC(C)c1ccc(NC(=O)c2ccn(S(=O)(=O)c3cnc4[nH]ccc4c3)c2)cc1` (stereo not drawn) [Compound 60, 1-((1H-pyrrolo[2,3-b]pyridin-5-yl)sulfonyl)-N-(4-(sec-butyl)phenyl)-1H-pyrrole-3-carboxamide]: the concentration for half-maximal inhibition (IC50) is 3.9 µM in the test with A549 (NSCLC) cells, 3.8 µM in the test on A2780 (ovarian) cells and 13.2 µM in test [1].

`O=C(Nc1cccc(C(F)(F)F)c1)C1CCN(S(=O)(=O)c2ccc3[nH]ccc3c2)CC1` [Compound 63, 1-((1H-indol-5-yl)sulfonyl)-N-(3-(trifluoromethyl)phenyl) piperidine-4-carboxamide]: the values for the IC50 (in the test with A549 (NSCLC) cells; with A2780 (ovarian) cells; in test [1]) were 12.6 µM, 10.9 µM and 13.5 µM, respectively.

Consider `CCC(C)c1ccc(NC(=O)C2CCN(S(=O)(=O)c3ccc4cc[nH]c4c3)CC2)cc1` (stereo not drawn) [Compound 64, 1-((1H-indol-6-yl)sulfonyl)-N-(4-(sec-butyl)phenyl) piperidine-4-carboxamide], for which the IC50 in the test with A549 (NSCLC) cells came out at 14 µM; in the test on A2780 (ovarian) cells, 9.8 µM; in test [1], 4.05 µM.

With `CCC(C)c1ccc(NC(=O)C2CCN(S(=O)(=O)c3ccc4cc[nH]c4n3)CC2)cc1` (stereo not drawn) [Compound 65, 1-((1H-pyrrolo[2,3-b]pyridin-6-yl)sulfonyl)-N-(4-(sec-butyl)phenyl) piperidine-4-carboxamide], the IC50 in the test with A549 (NSCLC) cells was determined as 16.2 µM; in the test with A2780 (ovarian) cells, 22.3 µM; in test [1] it was 12.5 µM.

For `N#Cc1ccc(NC(=O)c2ccn(S(=O)(=O)c3ccc4[nH]ccc4c3)c2)cc1` [Compound 67, 1-((1H-indol-5-yl)sulfonyl)-N-(4-cyanophenyl)-1H-pyrrole-3-carboxamide], the IC50 in the test on A549 (NSCLC) cells was determined as 14.1 µM; in the test with A2780 (ovarian) cells it was 6.23 µM; in test [1], 15.7 µM.

In the case of `O=C(Nc1ccc(F)c(F)c1)c1ccn(S(=O)(=O)c2ccc3[nH]ccc3c2)c1` [Compound 68, 1-((1H-indol-5-yl)sulfonyl)-N-(3,4-difluorophenyl)-1H-pyrrole-3-carboxamide], the results for the half-inhibitory concentration (IC50) (in the test with A549 (NSCLC) cells; in the test on A2780 (ovarian) cells; in test [1]) were 16.6 µM, 8.53 µM and 19.1 µM, respectively.

`O=C(Nc1ccc(Cl)c(F)c1)c1ccn(S(=O)(=O)c2ccc3[nH]ccc3c2)c1` [Compound 69, 1-((1H-indol-5-yl)sulfonyl)-N-(4-chloro-3-fluorophenyl)-1H-pyrrole-3-carboxamide]: the half-maximal inhibitory concentration (IC50) turned out to be 13.3 µM in the test on A549 (NSCLC) cells, 8.66 µM in the test on A2780 (ovarian) cells and 17.3 µM in test [1].

As to `O=C(Nc1ccc(Cl)c(Cl)c1)c1ccn(S(=O)(=O)c2ccc3[nH]ccc3c2)c1` [Compound 71, 1-((1H-indol-5-yl)sulfonyl)-N-(3,4-dichlorophenyl)-1H-pyrrole-3-carboxamide], the IC50 was 9.28 µM in the test on A549 (NSCLC) cells, 7.49 µM in the test on A2780 (ovarian) cells and 8.9 µM in test [1].

For `O=C(Nc1ccc(C(F)(F)F)cc1)c1ccn(S(=O)(=O)c2ccc3[nH]ccc3c2)n1` [Compound 78, 1-((1H-indol-5-yl)sulfonyl)-N-(4-(trifluoromethyl)phenyl)-1H-pyrazole-3-carboxamide], the IC50 in the test with A549 (NSCLC) cells stood at 18.4 µM; in the test with A2780 (ovarian) cells, 5.44 µM; in test [1], 21.6 µM.

With `O=C(Nc1ccc(Cl)c(Cl)c1)c1ccn(S(=O)(=O)c2ccc3[nH]ccc3c2)n1` [Compound 83, 1-((1H-indol-5-yl)sulfonyl)-N-(3,4-dichlorophenyl)-1H-pyrazole-3-carboxamide], the IC50 worked out at 14.3 µM with A549 (NSCLC) cells, 9.31 µM with A2780 (ovarian) cells and 13.1 µM in test [1].

In the case of `CC(C)(C)c1ccc(S(=O)(=O)n2ccc(C(=O)NCCc3ccc(F)cc3)c2)cc1` [Compound 89, 1-((4-(tert-butyl)phenyl)sulfonyl)-N-(4-fluorophenethyl)-1H-pyrrole-3-carboxamide], the figures for the IC50 (with A549 (NSCLC) cells; in the test with A2780 (ovarian) cells; in test [1]) were 6.7 µM, 2.8 µM and 15.6 µM, respectively.

As for `CC(C)(C)c1ccc(S(=O)(=O)n2ccc(C(=O)Nc3ccc(F)cc3)c2)cc1` [Compound 92, 1-((4-(tert-butyl)phenyl)sulfonyl)-N-(4-fluorophenyl)-1H-pyrrole-3-carboxamide], the results for the IC50 (in the test with A549 (NSCLC) cells; in the test with A2780 (ovarian) cells; in test [1]) were 17.3 µM, 4 µM and 16.6 µM, respectively.

Turning to `CC(C)(C)c1ccc(S(=O)(=O)n2ccc(C(=O)Nc3ccc(C(F)(F)F)cc3)c2)cc1` [Compound 93, 1-((4-(tert-butyl)phenyl)sulfonyl)-N-(4-(trifluoromethyl)phenyl)-1H-pyrrole-3-carboxamide], the IC50 in the test with A549 (NSCLC) cells was found to be 12.8 µM; with A2780 (ovarian) cells it was 3.2 µM; in test [1], 18.2 µM.

In the case of `CCCc1ccc(NC(=O)c2ccn(S(=O)(=O)c3ccc4[nH]ccc4c3)c2)cc1` [Compound 96, 1-((1H-indol-5-yl)sulfonyl)-N-(4-propylphenyl)-1H-pyrrole-3-carboxamide], the IC50 was determined as 12.8 µM in the test on A549 (NSCLC) cells, 8.85 µM in the test on A2780 (ovarian) cells and 12.2 µM in test [1].
